The values below come from US20240043444A1, “METHODS FOR TREATING SPINOCEREBELLAR ATAXIA TYPE 3” (PTC Therapeutics, Inc., priority 2021, published 2024).

One may read the IC50 as the midpoint of a concentration-inhibition curve.

The subject of assay [1] is ATXN3 Pre-mRNA (exon 4 skipping). Briefly: RT-qPCR Assay to Quantify Exon 4 Skipping in ATXN3 Pre-mRNA in Cells. Particulars: cells incubated with compound 24 h, normalised to GAPDH, 7-point concentration curve. It is filed as cell-based. The protocol:
(§1) Test compounds were serially diluted 3.16-fold in 100% DMSO to generate a 7-point concentration curve. Aliquots of 0.5 μL of diluted compounds were transferred to a 96-well flat bottom plate by a liquid handler. An aliquot of 0.5 μL DMSO was also transferred to separate wells and used as controls. Duplicate samples were set up for each compound concentration and for the DMSO control.
Cells were thawed and incubated in cell culture media (DMEM, 10% FBS, and 1% antibiotic cocktail) for 72 h. Cells were trypsinized, counted, and re-suspended to a concentration of 100,000 cells/mL in cell culture media. A 100 μL aliquot of the cell suspensions were plated at 10,000 cells per well in the compound containing 96 well microtiter plate and incubated for in a cell culture incubator (37° C., 5% CO2, 100% relative humidity).
After 24 h, media was aspirated from the cells and 50 μL of the RCL2 lysis buffer (10 mM Tris-HCL pH 7.4, 150 mM NaCl, 0.33% IGEPAL® CA-630) was added to each well and incubated at room temperature for 1 min. Chilled nuclease free water (50 μL per well) was added and the plates were immediately transferred on ice. After 1 min on ice, plates were frozen at −80° C. overnight.
Preparation of RT-qPCR Reaction Mixture:
An aliquot of 2 μL/well of the cell lysates was transferred using the liquid handler to the Armadillo 384-Well PCR plate containing 8 μL/well of the RT-qPCR reaction mixture that was prepared as detailed above. The plates were then sealed with MicroAmp™ Optical Adhesive Film followed by spinning down for 1 min and placed in the CFX384 thermocycler (BioRad).
The RT-qPCR was carried out at the following temperatures for the indicated time: • Step 1: 48° C. (30 min) • Step 2: 95° C. (10 min) • Step 3: 95° C. (15 sec) • Step 4: 60° C. (1 min); then, repeated Steps 3 and 4 for a total of 40 cycles.
The percent exon 4 skipping was calculated for each dose of compound treatment using Equations 1 and 2.
Data were fit to a dose response curve and the IC50 was interpolated using XLfit® statistical and curve fitting package.
An IC50 value between >2.0 μM and ≤3.0 μM is indicated by one star (*). […] IC50 value between >0.5 μM and ≤1.0 μM is indicated by four stars (****). An IC50 value ≤0.5 μM is indicated by five stars (*****).

The test system of assay [2] is Endogenous Total ATXN3 (tATXN3) Protein. Briefly: Endogenous Total ATXN3 (tATXN3) Protein Assay (MSD immunoassay of cell lysates). Particulars: cells incubated with compound 48 h; 7-point concentration curve; MSD plate readout. It is filed as cell-based. The protocol: Meso Scale Discovery (MSD) 96-well or 384-well plates were coated overnight at 4° C. with Ataxin 3 mouse monoclonal antibody (Invitrogen, MA3-082) at a concentration of […] in PBS (30 μL per well). Plates were then washed three times with 300 μL wash buffer (0.05% TWEEN®-20, polyethylene glycol sorbitan monolaurate, in PBS) and blocked (Meso Scale Diagnostics, R93BA-1; 5% BSA in PBS) for 2 h at room temperature with rotational shaking and then washed three times with wash buffer.
as §1
Cells were thawed and incubated in cell culture media (DMEM, 10% FBS, and 1% antibiotic cocktail) for 72 h. Cells were trypsinized, counted, and re-suspended to a concentration of 100,000 cells/mL in cell culture media. A 100 μL aliquot of the cell suspensions were plated at 10,000 cells per well in the compound containing 96 well microtiter plate and incubated for in a cell culture incubator (37° C., 5% CO2, 100% relative humidity). After 48 h, the medium was removed and 50-100 μL of lysis buffer (Meso Scale Diagnostics, R60TX-2) containing 1× halt protease inhibitor cocktail of (Thermo Scientific, Halt™ Protease Inhibitor Cocktail, 78430) per well was added to cells to provide a “cell lysate”. The plate was placed on a shaker at 4° C. for 30 minutes, then stored at −80° C.
Cell lysate samples (25 μL) were transferred to the antibody-coated MSD plate and incubated overnight at 4° C. After removal of the lysates, the plate was washed three times with wash buffer, and 25 μL of Ataxin 3 recombinant rabbit monoclonal antibody (Invitrogen, #702788) secondary antibody (diluted to 0.25 μg/mL in 0.05% TWEEN®-20 in blocking buffer) was added to each well and incubated with shaking for 1-2 h at room temperature. Following incubation with the secondary antibody, the wells were rinsed with wash buffer and then 25 μL of Anti Rabbit Antibody Goat SULFO-TAG Labeled (Meso Scale Diagnostics, R32AB-1) detecting antibody (diluted to 0.25 μg/mL in 0.05% TWEEN®-20 in blocking buffer) was added to each well and incubated with shaking for 1 h at room temperature. After rinsing three times with wash buffer, 150 μL of Read Buffer T with surfactant (tris-based buffer containing tripropylamine, Meso Scale Diagnostics, R92TC-1) were added to each empty well, and the plate was imaged on a SI 6000 imager (MSD) according to manufacturers' instructions provided for 96- or 384-well plates.

As to `Cc1c(C[C@@H](N)CCO)sc2c(NCc3ccco3)nc(Cl)nc12` [Cpd 97, (3S)-3-amino-4-(2-chloro-4-{[(furan-2-yl)methyl]amino}-7-methylthieno[3,2-d]pyrimidin-6-yl)butan-1-ol], the IC50 in assay [1] and in assay [2] was not above 500 nM in each case.
In the case of `CCc1c(C[C@H](C)N)sc2c(NCc3ccco3)nc(Cl)nc12` [Cpd 77, 6-[(2S)-2-aminopropyl]-2-chloro-7-ethyl-N-[(furan-2-yl)methyl]thieno[3,2-d]pyrimidin-4-amine], the 50% inhibitory concentration (IC50) in assay [1] and in assay [2] was not above 500 nM throughout.
In the case of `Clc1nc(NCc2cccs2)c2scc(Br)c2n1` [Cpd 80, 7-bromo-2-chloro-N-[(thiophen-2-yl)methyl]thieno[3,2-d]pyrimidin-4-amine], the “IC50 (exon 4 skipping in ATXN3 pre-mRNA)” value in assay [1] is “inactive”. The “IC50 (average, total ATXN3 protein)” value in assay [2] is “inactive”.
With `Cc1ccoc1CNc1nc(Cl)nc2c(C)c(C[C@H](C)N)sc12` [Cpd 30, 6-[(2S)-2-aminopropyl]-2-chloro-7-methyl-N-[(3-methylfuran-2-yl)methyl]thieno[3,2-d]pyrimidin-4-amine], the results for the IC50 in assay [1] and in assay [2] were 1000 to 1500 nM and 1500 to 2000 nM, respectively.
In the case of `Cc1c(C[C@@H](N)CCF)sc2c(NCc3ccco3)nc(Cl)nc12` [Cpd 51, 6-[(2S)-2-amino-4-fluorobutyl]-2-chloro-N-[(furan-2-yl)methyl]-7-methylthieno[3,2-d]pyrimidin-4-amine], the IC50 in assay [1] and in assay [2] was not above 500 nM throughout.
In the case of `Cc1c(C[C@H](C)CO)sc2c(NCc3ccco3)nc(Cl)nc12` [Cpd 66, (2S)-3-(2-chloro-4-{[(furan-2-yl)methyl]amino}-7-methylthieno[3,2-d]pyrimidin-6-yl)-2-methylpropan-1-ol], the “IC50 (exon 4 skipping in ATXN3 pre-mRNA)” value in assay [1] was “inactive”. The “IC50 (average, total ATXN3 protein)” value in assay [2] was “inactive”.
With `Cc1nc(NCc2ccco2)c2sc(C[C@H](C)N)c(C)c2n1` [Cpd 15, 6-[(2S)-2-aminopropyl]-N-[(furan-2-yl)methyl]-2,7-dimethylthieno[3,2-d]pyrimidin-4-amine], the half-maximal inhibitory concentration (IC50) in assay [1] is not above 500 nM; in assay [2], 500 to 1000 nM.
Consider `C[C@H](N)Cc1sc2c(NCc3cccs3)nc(Cl)nc2c1-c1ccc(Cl)cc1` [Cpd 88, 6-[(2S)-2-aminopropyl]-2-chloro-7-(4-chlorophenyl)-N-[(thiophen-2-yl)methyl]thieno[3,2-d]pyrimidin-4-amine], for which the “IC50 (exon 4 skipping in ATXN3 pre-mRNA)” value in assay [1] is “inactive”. Also, the “IC50 (average, total ATXN3 protein)” value in assay [2] was “inactive”.
Turning to `Cc1c(C[C@H](C)N)sc2c(NCc3ncc[nH]3)nc(Cl)nc12` [Cpd 73, 6-[(2S)-2-aminopropyl]-2-chloro-N-[(1H-imidazol-2-yl)methyl]-7-methylthieno[3,2-d]pyrimidin-4-amine], the “IC50 (exon 4 skipping in ATXN3 pre-mRNA)” value in assay [1] was “inactive”. For the same compound, in assay [2], the “IC50 (average, total ATXN3 protein)” value was “inactive”.
On to `Cc1csc2c(NCc3ccncc3)nc(Cl)nc12` [Cpd 23, 2-chloro-7-methyl-N-[(pyridin-4-yl)methyl]thieno[3,2-d]pyrimidin-4-amine], for which the “IC50 (exon 4 skipping in ATXN3 pre-mRNA)” value in assay [1] was “inactive”. In addition, in assay [2], the “IC50 (average, total ATXN3 protein)” value was “inactive”.
With `Cc1c(C[C@H](C)N)sc2c(NCc3ncccc3F)nc(Cl)nc12` [Cpd 59, 6-[(2S)-2-aminopropyl]-2-chloro-N-[(3-fluoropyridin-2-yl)methyl]-7-methylthieno[3,2-d]pyrimidin-4-amine], the figures for the IC50 in assay [1] and in assay [2] were 1000 to 1500 nM and 1500 to 2000 nM, respectively.
On to `Cc1c(C[C@H](C)N)sc2c(NCc3ccco3)nc(Br)nc12` [Cpd 38, 6-[(2S)-2-aminopropyl]-2-bromo-N-[(furan-2-yl)methyl]-7-methylthieno[3,2-d]pyrimidin-4-amine], for which the IC50 in assay [1] and in assay [2] was not above 500 nM each time.
Consider `Cc1c(C[C@H](C)N)sc2c(NCc3nc(F)cs3)nc(Cl)nc12` [Cpd 92, 6-[(2S)-2-aminopropyl]-2-chloro-N-[(4-fluoro-1,3-thiazol-2-yl)methyl]-7-methylthieno[3,2-d]pyrimidin-4-amine], for which the IC50 in assay [1] and in assay [2] was not above 500 nM each time.
On to `C[C@H](N)Cc1sc2c(NCc3ccco3)nc(Cl)nc2c1Br` [Cpd 40, 6-[(2S)-2-aminopropyl]-7-bromo-2-chloro-N-[(furan-2-yl)methyl]thieno[3,2-d]pyrimidin-4-amine], for which the IC50 in assay [1] and in assay [2] was not above 500 nM each time.
As for `Cc1c([C@@H](C)N)sc2c(NCc3ccco3)nc(Cl)nc12` [Cpd 94, 6-[(1R)-1-aminoethyl]-2-chloro-N-[(furan-2-yl)methyl]-7-methylthieno[3,2-d]pyrimidin-4-amine], the “IC50 (exon 4 skipping in ATXN3 pre-mRNA)” value in assay [1] is “inactive”. Also, the “IC50 (average, total ATXN3 protein)” value in assay [2] is “inactive”.
With `Cc1c(C[C@H](C)CN)sc2c(NCc3ccco3)nc(Cl)nc12` [Cpd 70, 6-[(2S)-3-amino-2-methylpropyl]-2-chloro-N-[(furan-2-yl)methyl]-7-methylthieno[3,2-d]pyrimidin-4-amine], the IC50 lay within 500 to 1000 nM in assay [1] and 1000 to 1500 nM in assay [2].
Regarding `Cc1c(C[C@H](C)N)sc2c(NCc3ncccn3)nc(Cl)nc12` [Cpd 55, 6-[(2S)-2-aminopropyl]-2-chloro-7-methyl-N-[(pyrimidin-2-yl)methyl]thieno[3,2-d]pyrimidin-4-amine], the figures for the IC50 in assay [1] and in assay [2] were 2000 to 3000 nM and more than 2000 nM, respectively.
As to `Cc1c([C@H](C)N)sc2c(NCc3ccco3)nc(Cl)nc12` [Cpd 47, 6-[(1S)-1-aminoethyl]-2-chloro-N-[(furan-2-yl)methyl]-7-methylthieno[3,2-d]pyrimidin-4-amine], the “IC50 (exon 4 skipping in ATXN3 pre-mRNA)” value in assay [1] was “inactive”. For the same compound, the “IC50 (average, total ATXN3 protein)” value in assay [2] is “inactive”.
In the case of `Cc1c(C[C@H](C)N)sc2c(NCc3c(F)cncc3F)nc(Cl)nc12` [Cpd 64, 6-[(2S)-2-aminopropyl]-2-chloro-N-[(3,5-difluoropyridin-4-yl)methyl]-7-methylthieno[3,2-d]pyrimidin-4-amine], the 50% inhibitory concentration (IC50) was in the range of 500 to 1000 nM in assay [1] and 1000 to 1500 nM in assay [2].
As to `Cc1csc(CNc2nc(Cl)nc3c(C)c(C[C@H](C)N)sc23)n1` [Cpd 27, 6-[(2S)-2-aminopropyl]-2-chloro-7-methyl-N-[(4-methyl-1,3-thiazol-2-yl)methyl]thieno[3,2-d]pyrimidin-4-amine], the IC50 in assay [1] is 2000 to 3000 nM. In addition, in assay [2], the “IC50 (average, total ATXN3 protein)” value is “inactive”.
With `Cc1c(C[C@H](C)N)sc2c(NCc3cncs3)nc(Cl)nc12` [Cpd 74, 6-[(2S)-2-aminopropyl]-2-chloro-7-methyl-N-[(1,3-thiazol-5-yl)methyl]thieno[3,2-d]pyrimidin-4-amine], the IC50 in assay [1] was 1000 to 1500 nM; in assay [2], 1500 to 2000 nM.
The matching figures for `CC(C)[C@H](N)Cc1cc2nc(Cl)nc(NCc3ccco3)c2s1` [Cpd 5, 6-[(2R)-2-amino-3-methylbutyl]-2-chloro-N-[(furan-2-yl)methyl]thieno[3,2-d]pyrimidin-4-amine]: 500 to 1000 nM and not above 500 nM.
